What was measured:
[1] = tested on: H. contortus, O. circumcincta, T. axei, T. colubriformis, C. curticei, C. oncophora, and Oe. columbianum; assay: Fecal worm egg counts of treated infected sheep; format: in vivo; conditions: 3 treated sheep (6, 3 or 1 mg/kg P.O. single dose), four days following treatment, from 4,000-20,000 EPG
Experimental: (§1) Four "Parasite-free" sheep were exposed to infection with infective L3 of H. contortus, O. circumcincta, T. axei, T. colubriformis, C. curticei, C. oncophora, and Oe. columbianum. Twenty-four days after the last oral dose of infective larvae, when the infections were patent, three of the sheep were randomly assigned to treatment with either 6, 3 or 1 mg/kg body weight of paraherquamide as a single oral dose. The fourth sheep was maintained as an untreated control. All treatments were administered as solutions at a volume of 0.2 ml/kg P.O.: 6 mg/kg as a solution containing 30 mg/ml; 3 mg/kg as a solution containing 15 mg/ml; 1 mg/kg as a solution containing 5 mg/ml. The vehicle used was a mixture of dimethylsulfoxide: propylene glycol:miglyol (1.5:5:3.5).

[2] = tested on: Dermacentor albipictus larvae; assay: Tick larvae immersion test; conditions: same suspension of crude extract as Example 13, 2 ml whole broth equivalent, immersed 10 minutes
Experimental: The same suspension used in Example 13 was used at a concentration of 2 ml whole broth equivalent to screen for activity against tick larvae. For this test Dermacentor albipictus larvae were immersed in 2 ml whole broth equivalent Paraherquamide for 10 minutes. The liquid was then removed with vacuum retaining the ticks on drug-impregnated filter paper.

Solubility = format: physicochemical
[3] = tested on: Trichostrongylus colubriformis (benzimidazole resistant isolate); assay: Anthelmintic activity, single oral dose in experimentally infected sheep: residual worm burden vs untreated control; format: in vivo; conditions: 8 days after treatment
Experimental: as §1
(§2) Eight days following treatment the treated and control sheep were sacrificed and their residual worm burdens were recovered and identified using standard procedures. The worm burdens of the treated sheep were compared with that of the untreated control and the evaluations are tabulated as Table 1.

Cooperia oncophora = assay: as above; format: in vivo; conditions: 8 days after treatment
Experimental: as §1, §2

Cooperia spp. = assay: as above; format: in vivo; conditions: 8 days after treatment
Experimental: as §1, §2

Cooperia curticei = assay: as above; format: in vivo; conditions: 8 days after treatment
Experimental: as §1, §2

Ostertagia circumcincta = assay: as above; format: in vivo; conditions: 8 days after treatment; for Efficacy, Ostertagia circumcincta L4: L4 stage; for Efficacy, Ostertagia circumcincta, Adult: adult stage
Experimental: as §1, §2

[4] = tested on: Oesophagostomum columbianum; assay: as above; format: in vivo; conditions: 8 days after treatment, control worm burden 7
Experimental: as §1, §2

Trichostrongylus axei = assay: as above; format: in vivo; conditions: 8 days after treatment
Experimental: as §1, §2

[5] = tested on: Haemonchus contortus (benzimidazole resistant isolate); assay: as above; format: in vivo; conditions: 8 days after treatment
Experimental: as §1, §2

CN1C(=O)C23CC4C1(CN2CCC3(C)O)CC1(C(=O)Nc2c1ccc1c2OC=CC(C)(C)O1)C4(C)C (stereo not shown) [Paraherquamide]
fecal worm egg counts [1]: barely detectable or undetectable level | activity against tick larvae [2]: rapidly and completely active | solubility in organic solvents (Solubility; organic solvents): soluble | solubility in water (Solubility; water): slight solubility | Efficacy, Trichostrongylus colubriformis ([3]; 1.0 mg/kg P.O. single dose): 3 (≥91% effective) | Efficacy, Trichostrongylus colubriformis ([3]; 3.0 mg/kg P.O. single dose): 3 (≥91% effective) | Efficacy, Trichostrongylus colubriformis ([3]; 6.0 mg/kg P.O. single dose): 3 (≥91% effective) | Efficacy, Cooperia oncophora (Cooperia oncophora; 1.0 mg/kg P.O. single dose): 3 (≥91% effective) | Efficacy, Cooperia oncophora (Cooperia oncophora; 3.0 mg/kg P.O. single dose): 3 (≥91% effective) | Efficacy, Cooperia oncophora (Cooperia oncophora; 6.0 mg/kg P.O. single dose): 3 (≥91% effective) | Efficacy, Cooperia spp. (Cooperia spp.; 1.0 mg/kg P.O. single dose): 3 (≥91% effective) | Efficacy, Cooperia spp. (Cooperia spp.; 3.0 mg/kg P.O. single dose): 3 (≥91% effective) | Efficacy, Cooperia spp. (Cooperia spp.; 6.0 mg/kg P.O. single dose): 3 (≥91% effective) | Efficacy, Cooperia curticei (Cooperia curticei; 1.0 mg/kg P.O. single dose): 3 (≥91% effective) | Efficacy, Cooperia curticei (Cooperia curticei; 3.0 mg/kg P.O. single dose): 3 (≥91% effective) | Efficacy, Cooperia curticei (Cooperia curticei; 6.0 mg/kg P.O. single dose): 3 (≥91% effective) | Efficacy, Ostertagia circumcincta L4 (Ostertagia circumcincta; 1.0 mg/kg P.O. single dose): 2 (76-90% effective) | Efficacy, Ostertagia circumcincta L4 (Ostertagia circumcincta; 3.0 mg/kg P.O. single dose): 3 (≥91% effective) | Efficacy, Ostertagia circumcincta L4 (Ostertagia circumcincta; 6.0 mg/kg P.O. single dose): 3 (≥91% effective) | Efficacy, Ostertagia circumcincta, Adult (Ostertagia circumcincta; 1.0 mg/kg P.O. single dose): 3 (≥91% effective) | Efficacy, Ostertagia circumcincta, Adult (Ostertagia circumcincta; 3.0 mg/kg P.O. single dose): 3 (≥91% effective) | Efficacy, Ostertagia circumcincta, Adult (Ostertagia circumcincta; 6.0 mg/kg P.O. single dose): 2 (76-90% effective) | Efficacy, Oesophagostomum columbianum ([4]; 1.0 mg/kg P.O. single dose): 0 (0-50% effective) | Efficacy, Oesophagostomum columbianum ([4]; 3.0 mg/kg P.O. single dose): 3 (≥91% effective) | Efficacy, Oesophagostomum columbianum ([4]; 6.0 mg/kg P.O. single dose): 3 (≥91% effective) | Efficacy, Trichostrongylus axei (Trichostrongylus axei; 1.0 mg/kg P.O. single dose): 3 (≥91% effective) | Efficacy, Trichostrongylus axei (Trichostrongylus axei; 3.0 mg/kg P.O. single dose): 3 (≥91% effective) | Efficacy, Trichostrongylus axei (Trichostrongylus axei; 6.0 mg/kg P.O. single dose): 3 (≥91% effective) | Efficacy, Haemonchus contortus ([5]; 1.0 mg/kg P.O. single dose): 3 (≥91% effective) | Efficacy, Haemonchus contortus ([5]; 3.0 mg/kg P.O. single dose): 3 (≥91% effective) | Efficacy, Haemonchus contortus ([5]; 6.0 mg/kg P.O. single dose): 3 (≥91% effective)
